Data on 5 compounds can be found in publication PMC10671697, “Drug-Induced Conformational Dynamics of P-Glycoprotein Underlies the Transport of Camptothecin Analogs” (International Journal of Molecular Sciences, 2023).

Several values for one entry are separate records, joined by “and”; a condition that tells them apart may be missing. Equal values may be shown once. Read-outs that look alike come from different tables or passages of the source. Bounds are passed on as bounds.

Series [1] has as its target T1, wild-type mouse Pgp (MDR3) (Mus musculus, UniProt P21447). As to the method: Acrylamide quenching of protein fluorescence was used to probe drug-induced Pgp conformational changes indirectly. For this assay, a solution containing 1 µM of Pgp reconstituted into liposomes was titrated with acrylamide. The preparation was carried out in Chifflet buffer (pH 7.4) supplemented with 2 mM DTT. The assay was performed both in the presence and absence of ligand(s). […] The fluorescence intensities were corrected for dilution, background, and inner filter effects using Equation (3). A Stern–Volmer plot of Fo(corrected)/F(corrected) versus the concentration of acrylamide added was generated. The slope of the curve, an indicator of the degree of quenching, is related to the Stern–Volmer’s constant (Ksv) by Equation (4). (4) Focorrected/Fcorrected=1+KsvQ where [Q] is the concentration of the quencher, acrylamide.

The target in series [2] is T1, wild-type mouse Pgp (MDR3). The source says: For a molecule that binds to the receptor, only the protons within a distance of 5 Å from the saturated protein receive noticeable saturation transfer. The saturation transferred from the receptor to the bound ligands can be detected upon dissociation as a saturation transfer difference (STD). The observed degree of saturation transferred inversely correlates with the distance between the ligand and the receptor and reflects the degree of interaction. Due to the high lipophilicity of most Pgp substrates, there is a high possibility of non-specific interactions between the ligands and liposomes used, which can interfere with the STD NMR spectrum observed. The STD NMR spectrum of the drug in the presence of liposomes was performed and subtracted from the STD ^1H NMR spectrum of the ligand in the presence of proteins reconstituted into liposomes to yield a STDD. […] All NMR experiments were carried out at 25 °C (unless otherwise stated) on a Varian INOVA 600 MHz NMR spectrometer installed with a 1H-detect broadband probe {HX}.
The control samples were identically prepared with liposomes instead of Pgp reconstituted in liposomes. […] The difference between the on-resonance and the off-resonance created the STD ^1H NMR spectrum. A control experiment consisting of liposomes and drugs was obtained under identical conditions and subtracted from the ^1H STD NMR spectrum of the reconstituted Pgp sample with the drug to generate the STDD ^1H NMR spectrum. […] The STDD amplification factor was calculated using Equation (5) below. (5) STDD Amplication Factor=l/PΔl/Io where Io is the amplitude of the ^1H NMR peaks, l is the ligand concentration, and P is the protein concentration.
This is another data set of the same source.

The target in series [3] is T1, wild-type mouse Pgp (MDR3). As to the method: Atomic force microscopy (AFM) has been adapted for analyzing protein dynamics and structure, which has enabled the determination of conformational changes induced by ligands. In this study, Pgp reconstituted into liposomes was diluted in imaging buffer (20 mM HEPES, 100 mM NaCl, and 5 mM MgCl2; pH 7.4) to 100 nM. About 90 µL droplets of the diluted Pgp solution were deposited on cleaned […] (Corning, Corning, NY, USA), followed by 30 min of incubation at 25 °C. This step caused the proteoliposomes to rupture, forming a planar lipid bilayer on top of the mica surface. The samples were rinsed at least five times using the buffer exchange technique, wherein 90 µL of buffer was utilized. Next, AFM imaging of the EC-side and C-side domains of Pgp protrusions above the lipid bilayer was performed as previously described. For each of the selected CPTs used in this study, AFM imaging of the ligand-free Pgp (apoPgp) was performed first, then ligand was added, and imaging was repeated in nominally the same area. […] Only membrane-external protrusions that could be positively assigned as either EC or C-side domain features of Pgp were analyzed. All the AFM images were obtained in an imaging buffer at about 30 °C in tapping mode with biolever mini tips (BL-AC40TS, Olympus, Tokyo, Japan) installed on a commercial instrument (Asylum Research Cypher, Santa Barbara, CA, USA). The tip-sample force was kept below 100 pN to minimize the probability of protein distortion. The AFM images were analyzed with custom software written in Igor Pro 7 (Wavemetrics, Portland, OR, USA), as described previously. Kernel density estimation with Epanechnikov kernels in Igor Pro 7 software was used to generate smoothed histograms for further analysis. The histograms were fitted with a summation of Gaussian distributions. The Bayesian information criterion was used to select the best model after fitting with 1–5 Gaussian distributions as described previously (see Supporting Information).
This is another data set of the same source.

Series [4] concerns the target T1, wild-type mouse Pgp (MDR3). The following applies: for Decrease of protein fluorescence from the initial fluorescence: ex 295 nm; for Decrease of protein fluorescence: saturating AMPPNP.
For series [5] the following is noted: second-line chemotherapy, versus TPT; cited from earlier work.
Series [6] has as its system human tumor xenograft models. The following applies: different human tumor xenograft models, versus TPT; cited from earlier work. For orientation: A xenograft is tissue or cells of one species grown in another, often human tumour cells in immunodeficient mice.
For series [7] the following is noted: versus TPT; cited from earlier work.
In series [8] the target is T1, wild-type mouse Pgp (MDR3). Description: biochemical.
A further series relates to LS513 cells. The following applies: LS513 cells treated with BCRP and MRP2 inhibitors, versus SN-38; cited from earlier work.
Where [9] appears, read: 800 µM drug, 1 µM Pgp in liposomes, 25 °C.

T1 sequence (P21447 whole entry): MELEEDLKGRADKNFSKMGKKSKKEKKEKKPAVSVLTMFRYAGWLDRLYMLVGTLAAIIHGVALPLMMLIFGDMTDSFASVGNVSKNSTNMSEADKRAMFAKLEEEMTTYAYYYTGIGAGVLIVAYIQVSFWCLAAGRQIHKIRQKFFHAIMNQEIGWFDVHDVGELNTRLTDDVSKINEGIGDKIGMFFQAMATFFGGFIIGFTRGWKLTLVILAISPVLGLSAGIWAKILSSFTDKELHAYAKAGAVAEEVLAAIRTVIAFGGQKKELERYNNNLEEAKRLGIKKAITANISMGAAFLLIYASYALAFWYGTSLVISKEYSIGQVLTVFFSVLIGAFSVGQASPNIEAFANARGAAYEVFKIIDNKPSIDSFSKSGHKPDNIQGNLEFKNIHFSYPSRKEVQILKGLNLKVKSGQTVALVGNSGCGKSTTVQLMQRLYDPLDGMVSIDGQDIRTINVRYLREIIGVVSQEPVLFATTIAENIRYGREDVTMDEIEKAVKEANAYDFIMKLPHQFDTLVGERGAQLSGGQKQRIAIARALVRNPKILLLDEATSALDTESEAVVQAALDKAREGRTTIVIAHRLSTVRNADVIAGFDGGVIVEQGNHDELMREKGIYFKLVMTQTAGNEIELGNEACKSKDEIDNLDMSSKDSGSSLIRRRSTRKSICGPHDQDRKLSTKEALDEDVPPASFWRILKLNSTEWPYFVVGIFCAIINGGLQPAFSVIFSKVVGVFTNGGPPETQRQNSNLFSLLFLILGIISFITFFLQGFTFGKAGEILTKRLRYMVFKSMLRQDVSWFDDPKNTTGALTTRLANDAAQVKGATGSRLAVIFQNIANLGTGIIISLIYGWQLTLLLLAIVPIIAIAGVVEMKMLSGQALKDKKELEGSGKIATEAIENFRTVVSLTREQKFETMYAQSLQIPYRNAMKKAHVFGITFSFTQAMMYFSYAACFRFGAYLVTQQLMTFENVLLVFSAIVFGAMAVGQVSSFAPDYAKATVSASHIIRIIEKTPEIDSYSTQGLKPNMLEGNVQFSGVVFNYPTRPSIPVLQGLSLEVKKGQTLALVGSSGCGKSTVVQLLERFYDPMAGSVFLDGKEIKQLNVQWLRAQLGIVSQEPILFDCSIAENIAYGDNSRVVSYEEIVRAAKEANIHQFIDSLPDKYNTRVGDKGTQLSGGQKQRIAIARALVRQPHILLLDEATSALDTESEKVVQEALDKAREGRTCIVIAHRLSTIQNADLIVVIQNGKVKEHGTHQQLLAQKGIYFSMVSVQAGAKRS

Take `Nc1ncnc2c1ncn2[C@@H]1O[C@H](COP(=O)([O-])OP(=O)([O-])NP(=O)([O-])[O-])[C@@H](O)[C@H]1O.[Li+].[Li+].[Li+].[Li+]` [AMPPNP, Adenosine 5′-(β,γ-imido)triphosphate lithium salt]: the “Ksv of acrylamide quenching of Pgp fluorescence” value (“Ksv … of Pgp fluorescence” below) in series [1] (Pgp with saturating (3.2 mM) AMPPNP alone, no CPT) turned out to be 0.84 ± 0.07 M⁻¹.
For `CCc1c2c(nc3ccc(OC(=O)N4CCC(N5CCCCC5)CC4)cc13)-c1cc3c(c(=O)n1C2)COC(=O)[C@]3(O)CC` [IRT, Irinotecan], in series [1], the “Decrease in the Ksv value of apoPgp (acrylamide quenching)” value (from here on “Decrease in the Ksv value of apoPgp”) is listed as ~ 20%; the “Ksv … of Pgp fluorescence” value is 0.83 ± 0.05 and 0.83 ± 0.05 M^−1. In addition, the “Highest STDD amplification factor” value in series [2] was approximately 81. In addition, the “C-side height of tallest Pgp population in presence of drug” value (from here on “C-side height of tallest Pgp population”) in series [3] (100 µM drug, apo 76 ± 9 Å) was 70 ± 10 Å. Further, in [4], the “Change of affinity for Pgp in the presence of AMPPNP” value (“Change of affinity for Pgp” below) was “diminished by over threefold” and the “Stern–Volmer constant (Ksv) of drug-induced Pgp fluorescence quenching” value (from here on “Stern–Volmer constant (Ksv)”) worked out at 0.07 ± 0.01 µM⁻¹. The “Survival rate of patients compared with TPT” value in [5] is given as “higher survival rate”. Besides, in series [6], the “Efficacy compared with TPT” value is recorded as “greater efficacy”.
In the case of `CC(=O)N[C@@H](Cc1c[nH]c2ccccc12)C(N)=O` [NATA, N-acetyl-L-tryptophanamide], the “Ksv of acrylamide quenching of NATA fluorescence” value in series [1] (positive control, fully solvent-exposed tryptophan, no Pgp) stood at 15.43 ± 0.37 M⁻¹.
One may read the Kd as the equilibrium constant for the complex coming apart. With `CCc1c2c(nc3ccc(O)cc13)-c1cc3c(c(=O)n1C2)COC(=O)[C@]3(O)CC` [SN-38], the “Ksv … of Pgp fluorescence” value in series [1] (30 µM drug, 3.2 mM AMPPNP) worked out at 0.81 ± 0.08 M⁻¹; in series [1] (30 µM drug, absence of AMPPNP, apoPgp 1.58 ± 0.03) it was 1.12 ± 0.02 M⁻¹. In addition, the “Decrease in the Ksv value of apoPgp” value in series [1] (30 µM drug, no AMPPNP (Figure 4)) was ~ 28%. Moreover, the “Probability density difference (∆PD) of tallest population relative to apo” value in series [3] (30 µM drug) is on record as −1.08 × 10^7. Further, the “C-side height of tallest Pgp population” value in series [3] (30 µM drug, apo 84 ± 5 Å) is 78 ± 7 Å. The “Decrease of protein fluorescence from the initial fluorescence” value in series [4] (60 µM drug, absence of AMPPNP) was approximately 40.6%. Also, in series [4] (60 µM drug), the “Decrease of protein fluorescence” value is recorded as 38.8%. In addition, the “Stern–Volmer constant (Ksv)” value is 0.28 ± 0.09 µM⁻¹ in [4] (absence of AMPPNP) and 0.076 ± 0.02 µM⁻¹ in series [4] (saturating (3.2 mM) AMPPNP). In series [4] (presence vs absence of AMPPNP), the “Change of affinity for Pgp” value was “diminished by over threefold”. For the same compound, the “Fold higher cellular retention than TPT” value in series [7] is more than 2 fold. Besides, the values for the Kd in [8] (absence of AMPPNP) and in series [8] (saturating (3.2 mM) AMPPNP) were 3.53 ± 1.14 µM and 13.2 ± 4.23 µM, respectively.
With `CC[C@@]1(O)C(=O)OCc2c1cc1n(c2=O)Cc2cc3c(CN(C)C)c(O)ccc3nc2-1` [TPT, Topotecan], the “Ksv … of Pgp fluorescence” value in series [1] (60 µM drug, 3.2 mM AMPPNP) was found to be 0.71 ± 0.04 M⁻¹; in series [1] (60 µM drug, absence of AMPPNP, apoPgp 1.58 ± 0.03), 0.78 ± 0.06 M⁻¹. The “Decrease in the Ksv value of apoPgp” value in series [1] (60 µM drug, no AMPPNP (Figure 4)) is reported as approximately 50%. Besides, in [2] (setting [9]), the “Average STDD amplification factor” value is listed as “around 45”. In series [2] (setting [9]), the “Highest STDD amplification factor” value is on record as “approximately 133”. Further, in series [3] (60 µM drug), the “Probability density difference (∆PD) of tallest population relative to apo” value is 4.11 × 10^7. In series [3] (60 µM drug, apo 74 ± 9 Å), the “C-side height of tallest Pgp population” value was 75 ± 7 Å. In addition, in [4] (100 µM drug, absence of AMPPNP), the “Decrease of protein fluorescence from the initial fluorescence” value is “approximately 71.6%”. In addition, the “Decrease of protein fluorescence” value in series [4] (100 µM drug) is 61.0%. The “Stern–Volmer constant (Ksv)” value in series [4] (absence of AMPPNP) worked out at 0.41 ± 0.09 µM⁻¹; in [4] (saturating (3.2 mM) AMPPNP) it was 0.06 ± 0.01 µM⁻¹. Further, the “Change of affinity for Pgp” value in [4] (presence vs absence of AMPPNP) was “diminished by over threefold”. For the same compound, the “Relative efflux rate, times higher than SN-38” value in the series on LS513 cells is listed as “approximately 4 times”. The Kd in series [8] (absence of AMPPNP) amounted to 2.47 ± 0.57 µM; in [8] (saturating (3.2 mM) AMPPNP), 16 ± 3.27 µM.
